Results on one molecule are retold here after paper PMC8026785, “The pharmacokinetics of [^18F]UCB-H revisited in the healthy non-human primate brain” (EJNMMI Research, 2021).

The target in the experiment is T1, SV2A (Macaca fascicularis, UniProt Q4R4X3).
T1 construct: The current study evaluates [^18F]UCB-H pharmacokinetics in healthy NHPs; from tissue; host or cells: brain of living healthy cynomolgus monkeys (in vivo PET)
In words: Displacement PET studies of [^18F]UCB-H. The settings on record: about half of total uptake displaceable. It counts as in vivo, cynomolgus monkeys (Macaca fascicularis). As for the experimental part:
All four non-human primates (NHP) underwent a 2-h (2 h) test and retest PET scan; two NHP underwent an additional 4-h (4 h) retest PET scan. Three NHP underwent one 4-h (4 h) displacement PET scan. Arterial blood sampling was performed during test and retest scans with PET imaging spaced by at least 3 weeks between each scan. To this end, the femoral artery opposite to the saphenous vein used for radioligand injection was cannulated. For the 2-h (2 h) scans, we collected in total 28 blood samples of 1 mL: 16 samples during the first 5 min followed by […] every 5 min and […] every 10 min. For the 4 h scans, we collected an additional 6 samples every 20 min during the last two hours (34 samples in total). Larger samples (2 – 3 mL) were collected at 5, 15, 30, 60, 90, 120 min (2 h) and at 180, 240 min (4 h) for metabolite analysis. Displacement of [^18F]UCB-H was done by intravenous (IV) administration 90 min after [^18F]UCB-H injection of a bolus of 30 mg/kg LEV, or of 80 µg/kg (≈250 nmol/kg) or 5 mg/kg (≈15 µmol/kg) of cold [^19F]-UCB-H. Full experimental design of all NHP is outlined in Additional file 1: Table 1.
Solvents and LEV (C8H14N2O2; MM 170.21 g/mol) were obtained at Sigma-Aldrich® (France), and [^19F]-UCB-H (C16H12F4N2O; MM 324.28 g/mol) was synthesised as previously described. Injectable solutions of [^19F]-UCB-H for displacement studies were prepared with a mixture of Tetrahydrofuran (THF), Médialipide® and glucose at 2.5% as previously described. LEV was dissolved in a glucose solution of 2.5% to reach a concentration of 90 mg/mL.
PET image analysis was performed using PMOD software version 3.8 (PMOD Technologies Ltd., Zurich, Suisse). After individual co-registration of PET-MR images, a cynomolgus atlas published by Ballanger and coworkers was normalized to PET images to extract time activity curves in different brain regions. Volumes of interest (VOI) were cerebral white matter (16.7 cm^3), striatum (0.24 cm^3), thalamus (0.89 cm^3), cerebellum (3.83 cm^3), frontal—(2.50 cm^3), parietal—(5.35 cm^3), and temporal (8.22 cm^3) cortex, and whole brain (72.2 cm^3) as a composite region of all regions in the atlas. [^18F]UCB-H pharmacokinetics were evaluated by analyzing the time activity curves of the test- and retest scans using 1- and 2-tissue compartment models (unconstrained and constrained with global K1/k2 coupled fit across all regions, further referred to as 2TCM and 2TCM-c), and Logan graphical analysis with a fixed t* at 60 min [33] using the arterial plasma input function corrected for radio-metabolites to derive the volume of distribution in each region. Percentage standard error (%SE) was estimated from the theoretical parameter covariance matrix. Only reliable estimates (%SE less than 25%) were included in the current analyses. For the three drug studies, percent displacement of the total activity in the whole brain was estimated relative to an average baseline constructed from the two 4 h baseline studies. Briefly, Standardized Uptake Value (SUV) time activity curves (TACs) were calculated for the two baseline and the three displacement studies. Then, each curve was normalized to the SUV at t = 90 min, corresponding to the timeframe immediately before the administration of the drugs in the displacement studies. Baseline curves were averaged and the percent displacement of total activity was calculated as (baseline-displacement)/baseline at a given time post drug administration (see “Results”).

SMILES strings stand for the structures.

T1 sequence (Q4R4X3 whole entry): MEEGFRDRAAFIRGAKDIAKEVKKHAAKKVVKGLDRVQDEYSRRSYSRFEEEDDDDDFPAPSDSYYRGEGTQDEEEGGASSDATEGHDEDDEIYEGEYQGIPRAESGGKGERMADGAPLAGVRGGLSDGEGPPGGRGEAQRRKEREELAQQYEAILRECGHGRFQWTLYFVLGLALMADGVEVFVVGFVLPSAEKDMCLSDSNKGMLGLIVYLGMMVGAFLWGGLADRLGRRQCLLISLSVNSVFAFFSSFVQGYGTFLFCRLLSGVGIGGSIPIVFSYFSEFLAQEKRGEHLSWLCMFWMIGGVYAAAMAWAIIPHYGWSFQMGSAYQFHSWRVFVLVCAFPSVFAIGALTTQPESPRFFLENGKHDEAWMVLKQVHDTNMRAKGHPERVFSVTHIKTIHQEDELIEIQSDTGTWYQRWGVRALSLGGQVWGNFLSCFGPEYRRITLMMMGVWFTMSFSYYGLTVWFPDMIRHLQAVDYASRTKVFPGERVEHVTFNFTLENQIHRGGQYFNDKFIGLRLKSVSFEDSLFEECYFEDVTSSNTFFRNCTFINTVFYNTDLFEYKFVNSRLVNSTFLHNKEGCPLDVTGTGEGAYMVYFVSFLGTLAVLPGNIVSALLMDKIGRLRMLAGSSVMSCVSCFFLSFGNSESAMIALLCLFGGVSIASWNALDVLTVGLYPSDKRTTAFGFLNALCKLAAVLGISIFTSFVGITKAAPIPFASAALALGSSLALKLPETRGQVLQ

As to `O=C1C[C@H](c2cc(F)c(F)c(F)c2)CN1Cc1ccncc1[18F]` [[^18F]UCB-H], the “BPND expected from maximum displacement” value is given as roughly 1.0.
